Data: PubChem BioAssay AID1361 (SRMLSC, 2008)
Calls of active or inactive are those of the source. How the calls were made is not given here.

Assay: blockers of mitochondrial fusion, WT vs mutant – cell-based, chemical genetic, wild-type and mutant, confirmation (AID 1361)
Conditions: Cell-based mitochondrial fusion phenotype, imaging
[1] = mutant cells, measured here: mutant cell line IC50

SMILES	IC50 (WT cells)	IC50 [1]
COc1cc(OC)c2c(c1)C(=O)c1cc(OC)cc(OC)c1C2=O	> 25 µM (inactive)	> 25 µM
CC(C)N(C(=S)NC1CC2CCC1C2)c1ccccc1 (centres undefined)	25 µM (inactive)	> 25 µM
OCCN(CCO)CC(O)COc1ccc(C23CC4CC(CC(C4)C2)C3)cc1 (centres undefined)	> 25 µM (inactive)	> 25 µM
CC(C)(C)N=C1NN=C(c2cc3ccccc3o2)CS1		> 25 µM
c1ccc(CC2CCN(c3nnnn3-c3ccccc3)CC2)cc1	> 25 µM (inactive)	> 25 µM
COc1ccccc1CNC(=O)c1ccc(-c2ccccc2C(F)(F)F)o1	21.3 µM	> 25 µM
COC(=O)c1ccc(NC(=O)Nc2ccc(F)c(Cl)c2)cc1	19.4 µM	> 25 µM
Cc1cc(Cl)ccc1OC(C)C(=O)Nc1ccccc1N1CCOCC1 (centres undefined)	21.1 µM	> 25 µM
O=c1cc(-c2ccc(C3CCCCC3)cc2)[nH][nH]1	> 25 µM (inactive)	> 25 µM
COCCCNC(=O)CS(=O)(=O)Cc1nc(-c2cccc(OC)c2)oc1C	> 25 µM (inactive)	> 25 µM
O=C(NC(=S)Nc1ccccc1N1CCCCC1)c1ccco1	> 25 µM (inactive)	23 µM
CC(c1ccccc1)N(CC(=O)NC1CCCCC1)S(=O)(=O)c1cccc(C(F)(F)F)c1 (centres undefined)	12.4 µM	> 25 µM
Cc1ccc(-c2cc(C(F)F)n3ncc(C(=O)N4CCN5CCCC5C4)c3n2)cc1 (centres undefined)	> 25 µM (inactive)	> 25 µM
COc1ccc(C2CC(=O)c3cnc(Nc4cc(C)cc(C)c4)nc3C2)cc1 (centres undefined)	> 25 µM (inactive)	> 25 µM
Cc1ccc(-n2nc3c(c2NC(=O)c2ccc4c(c2)OCO4)CSC3)c(C)c1	> 25 µM (inactive)	> 25 µM
Cc1c(N2C(=O)c3cccc4cccc(c34)C2=O)c(=O)n(-c2ccccc2)n1C	> 25 µM (inactive)	> 25 µM
Cc1sc(NC(=O)c2ccccc2)c(C(c2ccc(Cl)cc2)N2CCN(CCO)CC2)c1C (centres undefined)	13.5 µM	> 25 µM
CCOC(=O)c1sc(NC(=O)/C=C/c2cnn(CC)c2C)c(C(=O)OCC)c1C	> 25 µM (inactive)	> 25 µM
Cc1ccccc1N1CCN(c2ncnc3scc(-c4cccs4)c23)CC1	9.75 µM	> 12.5 µM
CCC(C(=O)OCC(=O)Nc1ccc(SC(F)F)cc1)c1ccccc1 (centres undefined)	17.6 µM	> 25 µM
CC(=O)Nc1sc2c(c1C(c1ccc(Cl)cc1)N1CCOCC1)CCCC2 (centres undefined)	13 µM	> 25 µM

SMILES	IC50 (WT cells)	IC50 [1]
Cc1cc(C(=O)Nn2c(C3CCCCC3)nc3ccccc3c2=O)ccc1[N+](=O)[O-]	16.7 µM	> 25 µM
CN1CCN(c2nc(-c3cccnc3)nc3ccccc23)CC1	> 25 µM (inactive)	> 25 µM
Cc1cc(C)n(CC(O)Cn2c3ccc(Cl)cc3c3cc(Cl)ccc32)c(=O)n1 (centres undefined)	16.6 µM	> 25 µM
COCCn1c(SCc2nnc(-c3ccccc3)o2)nc2sc3c(c2c1=O)CCC3	8.38 µM	17.6 µM
Cn1c(Cc2ccccc2)nnc1SCC(=O)c1ccc(Br)s1	> 25 µM (inactive)	> 12.5 µM
CC(=O)N(C)c1nnc(-c2cnccn2)s1	> 25 µM (inactive)	> 25 µM
CC1CN(c2ncnc3c2c(-c2ccccc2)cn3-c2ccc(F)cc2)CC(C)O1 (centres undefined)	21.4 µM	> 25 µM
CCCCSc1nnc(-c2ccccc2)c2ccccc12	24.9 µM (inactive)	> 25 µM
CCC1(C)Cc2c(sc3[nH]c(=S)n(Cc4ccccc4)c(=O)c23)CO1 (centres undefined)	21.2 µM	> 25 µM
Cc1cc(C)cc(NC(=S)Nc2cccc3cnccc23)c1	> 25 µM (inactive)	> 25 µM
CCN(CC)CCNC(=O)Cn1c(-c2ccccn2)nc2ccccc21		> 25 µM
COc1ccc(CN(C)C2c3ccccc3-c3ccccc32)cc1	16.7 µM	17 µM
O=C(CCc1ccccc1)Nc1nnc(-c2ccc3c(c2)CCCC3)o1	8.76 µM	> 25 µM
Cn1c(=O)c2c(nc(N3CCCCCC3)n2Cc2cccc3ccccc23)n(C)c1=O	10 µM	> 25 µM
O=[N+]([O-])c1ccc(Nc2c3ccccc3nc3ccccc23)cc1	12.4 µM	18.1 µM
NC(=S)N/N=C/c1ccccc1OCCSc1ccc(Cl)cc1	6.86 µM	12 µM
Cc1cc(N/N=C/c2ccc(O)c(C)c2O)nc(-c2ccccc2O)n1	> 25 µM (inactive)	> 25 µM
CC(NC(=S)NCCCN1CCOCC1)C1CC2CCC1C2 (centres undefined)	> 25 µM (inactive)	> 25 µM
CC1(C)CC(C(CCN(Cc2ccccc2)C(=O)c2ccco2)c2ccc(F)cc2)CCO1 (centres undefined)	16.8 µM	> 25 µM
CCOC(=O)C1CCN(CC(=O)Nc2cc(C)nn2-c2nc3ccccc3s2)CC1	> 25 µM (inactive)	> 25 µM
CNC(=S)N1CCN(c2ccc([N+](=O)[O-])cc2)CC1	> 25 µM (inactive)	> 25 µM

SMILES	IC50 (WT cells)	IC50 [1]
CC(C)(C)[C@@H]1C=C(C(=O)N2CCN(Cc3ccccc3)CC2)O[C@H](OCc2ccc(CO)cc2)C1	23.8 µM	> 25 µM
COc1ccc(C(C(=O)Nc2ccc(F)cc2)N(C(=O)Cn2nnc3ccccc32)C2CC2)cc1 (centres undefined)	> 25 µM (inactive)	> 25 µM
CC(C)OC(=O)C(C(=O)C(F)(F)F)c1cc(NS(=O)(=O)c2ccc3ccccc3c2)c2ccccc2c1O (centres undefined)	15.1 µM	> 25 µM
CCOC(=O)C1=C(C)NC(C)=C(C(=O)OC)C1c1cccc(Cl)c1Cl (centres undefined)	20.4 µM	> 25 µM
CCc1cc(-c2n[nH]c(=S)n2-c2ccccc2C)cs1	> 25 µM (inactive)	> 25 µM
FC(F)(F)c1ccc(Oc2ccc3ccccc3c2Br)nc1	> 25 µM (inactive)	> 12.5 µM
CC(C)CN(C(=O)c1nn(C)c(=O)c2ccccc12)c1nc2ccccc2s1	21.9 µM	> 25 µM
c1ccc2c(c1)[nH]c1c(N3CCCC3)ncnc12	> 25 µM (inactive)	> 25 µM
O=C(Nc1cccc(Cl)c1N1CCCC1)c1ccc(Br)o1	18.1 µM	> 25 µM
COc1cc(CNCCO)cc(Br)c1OCc1ccccc1Cl	> 25 µM (inactive)	23.8 µM
COc1ccccc1N1CCN(C(=O)c2oc3cc(C)cc(C)c3c2C)CC1	23.9 µM	> 25 µM
CC(=O)Cc1nsc(NC(=O)c2ccc(-c3cc(Cl)ccc3Cl)o2)n1	> 25 µM (inactive)	> 25 µM
CCOP(=O)(OCC)C(Nc1cccc(C(F)(F)F)c1)c1ccc(Br)cc1 (centres undefined)	16.3 µM	> 25 µM
CC(C)(C)c1ccc(CNc2ccc([N+](=O)[O-])cn2)cc1	> 25 µM (inactive)	> 25 µM
Cc1ccc(Cn2nc3c(cc2=O)CCc2ccccc2-3)cc1	> 25 µM (inactive)	> 25 µM
O=C(C1=C[C@@H](c2csc3ccccc23)C[C@@H](OCc2ccc(CO)cc2)O1)N1CCN(Cc2ccccc2)CC1	5.83 µM	> 25 µM
Cn1c(=O)c(NC2CCCCC2)c2c3c(cccc31)C(=O)c1ccccc1-2	11 µM	21.1 µM
COc1ccc(NC(=O)Nc2cccc([N+](=O)[O-])c2)cc1Cl	> 25 µM (inactive)	> 25 µM
CC1CCCN(c2nc(-c3cccnc3)nc3scc(-c4ccccc4)c23)C1 (centres undefined)	11.8 µM	> 25 µM
N#Cc1nc(-c2ccco2)oc1NCc1ccc(F)cc1	> 25 µM (inactive)	> 25 µM
Fc1ccc(Nc2nc(N/N=C/c3ccco3)nc(N3CCCCC3)n2)cc1	19.3 µM	> 25 µM

SMILES	IC50 (WT cells)	IC50 [1]
CC1(C(=O)OCC(=O)c2c[nH]c3ccccc23)CC1(Cl)Cl (centres undefined)	5.84 µM	9.97 µM
Clc1ccc2c(c1)C(c1ccccc1Cl)=NCc1nnc(N3CCN(CCOc4ccccc4)CC3)n1-2	23.7 µM	> 25 µM
O=C(COC(=O)C1(c2ccc(Cl)cc2)CCCC1)Nc1ncc(C(F)(F)F)cc1Cl	18.2 µM	> 25 µM
O=C1c2ccccc2OC2(C=Cc3ccccc3O2)N1Cc1ccccc1 (centres undefined)	5.8 µM	> 25 µM
COc1ccccc1NC(=O)COC(=O)c1ccc([N+](=O)[O-])s1	6.09 µM	19.4 µM
COc1ccc(C(=O)NN(C)c2nc(-c3ccccc3)nnc2C(F)(F)F)cc1	> 25 µM (inactive)	> 25 µM
O=C(N/N=C/c1c[nH]c2ccccc12)C1CC1(c1ccccc1)c1ccccc1 (centres undefined)	> 25 µM (inactive)	> 25 µM
COc1ccc(-c2[nH]c(-c3cc(OC)c4c(c3)OCO4)nc2-c2ccccc2)cc1	12.6 µM	> 25 µM
Oc1ccccc1CN(Cc1ccco1)CC(O)COCc1ccc(Cl)cc1 (centres undefined)	19.1 µM	> 25 µM
CC(C)(C)n1nnnc1C(c1cccs1)N1CCCC2(CCCCC2)C1 (centres undefined)	4.86 µM	> 25 µM
COc1ccc(NC(=S)N(CCCN2CCCC2)Cc2cccn2Cc2ccc(Cl)cc2)cc1Cl	10.9 µM	23.2 µM
Cc1c(N(C(=O)Nc2ccccc2)C2=NCC(C)S2)c(=O)n(-c2ccccc2)n1C (centres undefined)	> 25 µM (inactive)	> 25 µM
O=C(Nc1ccc2c(c1)OCO2)c1ccccc1SCC(=O)N1CCCC1	> 25 µM (inactive)	> 25 µM
CC1CCCN(C(=O)N2c3ccccc3Sc3ccccc32)C1 (centres undefined)	18.8 µM	> 25 µM
Oc1ccc2ccccc2c1/C=N/c1nc2c(s1)CCCC2	> 25 µM (inactive)	> 25 µM
CCOc1ccccc1N1CCN(C(=O)c2ccc3[nH]c4c(c3c2)CCCC4)CC1	17.1 µM	> 25 µM
NNC(=O)c1cc2c(N3CCC(Cc4ccccc4)CC3)ncnc2s1	17.6 µM	> 25 µM
CCOc1ccccc1-n1c(CN2CCN(C(=O)c3ccco3)CC2)nc2ccccc2c1=O	> 25 µM (inactive)	> 25 µM
CCCCCOC(=O)c1ccc(NC(=O)c2ccco2)cc1	12.4 µM (inactive)	10.5 µM
CCC1Oc2ccc(C)cc2N(CC(=O)N(Cc2ccc(C)o2)C2CCCC2)C1=O (centres undefined)	> 25 µM (inactive)	> 25 µM
